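Where inhibition never reached the appropriate level, the endpoint shown equals the highest concentration tested. Otherwise, values were interpolated linearly from a five-concentration, 48-hour dose response in 96-well plates. At the GI50, growth is halved.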 The source made the active and inactive calls. Rule as the data show it: active = GI50 up to about 1.1 µM and inactive = higher.

The source of these data is ChEMBL document CHEMBL1201862, “PubChem BioAssay data set” (2004).

Among the test systems are RXF 393; NCI-H522; EKVX; SK-OV-3; K562; SW-620; ACHN; NCI-H226; HCT-15; CCRF-CEM; OVCAR-4; SN12C; UO-31; HCT-116; HT-29; SK-MEL-28; LOX IMVI; A498.
Holding throughout (assay): growth of human tumour cells (NCI), 48 h

On to `CC(C)[C@H]1CO[C@@H]2O[C@H](C)CC(=O)N21`, for which the GI50 in the experiment on RXF 393, in the experiment on NCI-H522, with EKVX, in the experiment on SK-OV-3, in the experiment with K562 and in the experiment on SW-620 was > 100 µM (inactive) throughout. Also, the GI50 in the experiment on ACHN was > 100 µM (inactive); with NCI-H226, > 100 µM (inactive); in the experiment on HCT-15, above 100 µM; with CCRF-CEM, > 100 µM (inactive); in the experiment with OVCAR-4, > 100 µM (inactive); with SN12C, > 100 µM (inactive). The GI50 in the experiment with UO-31, with HCT-116, with HT-29 and in the experiment on SK-MEL-28 was > 100 µM (inactive) in each case.
With `O=C(N/C(=C\c1ccc(Oc2ccc(Cl)c(Cl)c2)cc1)c1nc2ccccc2[nH]1)c1ccccc1`, the GI50 was 13.9 µM (inactive) with RXF 393; 15.9 µM (inactive) in the experiment with NCI-H522; 22 µM (inactive) in the experiment on EKVX; 26.2 µM (inactive) with SK-OV-3; 8.91 µM (inactive) in the experiment on K562; 16.6 µM (inactive) in the experiment with SW-620. Moreover, the GI50 in the experiment on ACHN is 19.7 µM (inactive); in the experiment on HCT-15 it was 23.2 µM; with CCRF-CEM it was 17.1 µM (inactive); in the experiment with OVCAR-4, 16.6 µM (inactive); in the experiment on SN12C, 18.4 µM (inactive); in the experiment on UO-31 it was 14.1 µM (inactive). In addition, the GI50 with HT-29 was 15.5 µM (inactive); in the experiment with SK-MEL-28, 18.4 µM (inactive).
In the case of `Cc1csc(CCC(N)C(=O)O)n1` (configuration not stated), the GI50 in the experiment on RXF 393, with NCI-H522, with EKVX, with SK-OV-3, in the experiment with K562 and in the experiment on SW-620 was > 100 µM (inactive) throughout. The GI50 in the experiment with ACHN is > 100 µM (inactive); with NCI-H226 it was > 100 µM (inactive); with HCT-15 it was above 100 µM; with CCRF-CEM it was > 100 µM (inactive); in the experiment on LOX IMVI it was > 100 µM (inactive); in the experiment with SN12C it was > 100 µM (inactive). In addition, the GI50 in the experiment on UO-31, with HCT-116, in the experiment on HT-29 and in the experiment on SK-MEL-28 was > 100 µM (inactive) each time.
For `CC1COS(=O)O1` (configuration not stated), the GI50 in the experiment with NCI-H522, with EKVX, in the experiment on SK-OV-3, with K562, in the experiment on SW-620 and with ACHN was > 100 µM (inactive) throughout. For the same compound, the GI50 was > 100 µM (inactive) in the experiment with NCI-H226; above 100 µM in the experiment with HCT-15; > 100 µM (inactive) in the experiment with CCRF-CEM; > 100 µM (inactive) in the experiment with OVCAR-4; > 100 µM (inactive) in the experiment on LOX IMVI; > 100 µM (inactive) in the experiment on SN12C. The GI50 in the experiment with UO-31, in the experiment with A498, in the experiment with HCT-116, with HT-29 and with SK-MEL-28 was > 100 µM (inactive) in each case.
Regarding `O=C(/C=C/c1ccc(Cl)c(Cl)c1)c1cccc2ccccc12`, the GI50 was 2.97 µM (inactive) with NCI-H522; 18.4 µM (inactive) with EKVX; 20.3 µM (inactive) with SK-OV-3; 3.17 µM (inactive) in the experiment with K562; 1.71 µM (inactive) in the experiment on SW-620; 16.4 µM (inactive) in the experiment with ACHN. Moreover, the GI50 was 14.4 µM (inactive) with NCI-H226; 2.54 µM with HCT-15; 2.53 µM (inactive) in the experiment on CCRF-CEM; 7.64 µM (inactive) in the experiment on OVCAR-4; 16.9 µM (inactive) in the experiment with SN12C; 19.6 µM (inactive) in the experiment on UO-31. In addition, the GI50 with A498 was 22.5 µM (inactive); with HCT-116, 3.23 µM (inactive); with HT-29 it was 3.59 µM (inactive); with SK-MEL-28, 17.8 µM (inactive).
Take `O=C1c2ccccc2C(=O)c2nc3ccc(Cl)cc3cc21`: the GI50 in the experiment on NCI-H522, in the experiment on EKVX, in the experiment on SK-OV-3, with K562, in the experiment on SW-620 and in the experiment with ACHN was > 100 µM (inactive) each time. The GI50 is > 100 µM (inactive) in the experiment with NCI-H226; above 100 µM with HCT-15; > 100 µM (inactive) in the experiment on CCRF-CEM; > 100 µM (inactive) with OVCAR-4; > 100 µM (inactive) with LOX IMVI; > 100 µM (inactive) with SN12C. Besides, the GI50 with UO-31, in the experiment on HCT-116, with HT-29 and with SK-MEL-28 was > 100 µM (inactive) in each case.
For `COc1nc(NC2OC(COC(C)=O)C(OC(C)=O)C(OC(C)=O)C2OC(C)=O)c(-c2csc(N)n2)c(=O)n1C` (configuration not stated), the GI50 with NCI-H522 is 46.5 µM (inactive); with SK-OV-3, > 100 µM (inactive); in the experiment on K562, 60.1 µM (inactive); in the experiment on SW-620, > 100 µM (inactive); with ACHN it was 38.4 µM (inactive); in the experiment on NCI-H226, 37.9 µM (inactive). For the same compound, the GI50 with HCT-15 is above 100 µM; in the experiment on CCRF-CEM it was > 100 µM (inactive); in the experiment on OVCAR-4 it was 19.4 µM (inactive); with LOX IMVI it was > 100 µM (inactive); in the experiment with SN12C, > 100 µM (inactive); in the experiment with UO-31 it was 52.8 µM (inactive). Moreover, the GI50 was > 100 µM (inactive) in the experiment with A498, 43.8 µM (inactive) in the experiment on HCT-116, > 100 µM (inactive) in the experiment with HT-29 and 55.7 µM (inactive) in the experiment on SK-MEL-28.
`O=C1OC(=O)c2c1c(-c1ccccc1)cn2-c1ccc(Cl)cc1`: the GI50 in the experiment on NCI-H522 was 67.3 µM (inactive); in the experiment on EKVX, 41.1 µM (inactive); with SK-OV-3, > 100 µM (inactive); with K562 it was 2.22 µM (inactive); with SW-620, > 100 µM (inactive); in the experiment on ACHN, 37.2 µM (inactive). The GI50 was > 100 µM (inactive) in the experiment with NCI-H226; 45.3 µM with HCT-15; 35.6 µM (inactive) with CCRF-CEM; 48.1 µM (inactive) in the experiment with LOX IMVI; > 100 µM (inactive) with SN12C; > 100 µM (inactive) in the experiment on UO-31. For the same compound, the GI50 in the experiment with HCT-116, in the experiment with HT-29 and in the experiment with SK-MEL-28 was > 100 µM (inactive) each time.
With `Cc1ccc(NC(=O)CCC(CC(=O)C(C)(C)C)=NNC(=O)C(=O)NN)cc1C`, the GI50 in the experiment on RXF 393, in the experiment on NCI-H522, in the experiment on EKVX, in the experiment with SK-OV-3, with K562 and with SW-620 was > 100 µM (inactive) each time. For the same compound, the GI50 with ACHN is > 100 µM (inactive); in the experiment on NCI-H226 it was > 100 µM (inactive); in the experiment with HCT-15, above 100 µM; in the experiment on CCRF-CEM, > 100 µM (inactive); with OVCAR-4 it was > 100 µM (inactive); in the experiment with LOX IMVI, > 100 µM (inactive). The GI50 in the experiment on SN12C, in the experiment on UO-31, in the experiment with HT-29 and in the experiment on SK-MEL-28 was > 100 µM (inactive) throughout.
